Results taken from paper PMC11111408, “Concurrent inhibition of oncogenic and wild-type RAS-GTP for cancer therapy” (Nature, 2024).

Tested on: PRISM DNA-barcoded human tumour cell lines
Test: PRISM pooled cell viability assay;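 as to Area under the curve (AUC): 8 threefold dilutions from 10 µM with 5 days of exposure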;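 as to PRISM AUC: 8 threefold dilutions from 10 µM with 5 days of exposure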
Format: cell-based
Parameters: Area under the curve (AUC): scale not given here; AUC (PRISM viability) / AUC (PRISM): unit not given beside the values
Details: for AUC (PRISM): BRAF class I; for PRISM AUC: KRAS MUT; for AUC (PRISM viability): WT
Experimental: Cells were then lysed in TCL mRNA lysis buffer, and then PCR with reverse transcription was performed. Detection of the barcodes and univariate and multivariate analysis was then performed as previously described. Data analysis is described in the Supplementary Methods. Up-to-date code for our analysis is at the github link: https://github.com/cmap/dockerized_mts.
For every gene with non-silent mutations in at least four cell-lines, we compared the AUC values between cells with and without those mutations using a t-test. This analysis was carried out for: (i) the full dataset; (ii) excluding cell lines with non-silent KRAS mutations; and (iii) excluding cell lines that have either KRAS or NRAS non-silent mutations.

[1] = DND41_HAEMATOPOIETIC_AND_LYMPHOID_TISSUE

`CCn1c(-c2cc(N3CCN(C4CC4)CC3)cnc2[C@H](C)OC)c2c3cc(ccc31)-c1csc(n1)C[C@H](NC(=O)[C@H]1[C@@H]3COC[C@@H]31)C(=O)N1CCC[C@H](N1)C(=O)OCC(C)(C)C2` [RMC-7977] was tested, and the “Area under the curve (AUC)” value (42MGBA_CENTRAL_NERVOUS_SYSTEM) was 0.8215, the “Area under the curve (AUC)” value (253JBV_URINARY_TRACT) was 0.7547 and the “Area under the curve (AUC)” value (639V_URINARY_TRACT) was 0.5786. The “Area under the curve (AUC)” value (647V_URINARY_TRACT) was 0.793, the “Area under the curve (AUC)” value (697_HAEMATOPOIETIC_AND_LYMPHOID_TISSUE) was 0.7402 and the “Area under the curve (AUC)” value (769P_KIDNEY) was 0.9025. The “Area under the curve (AUC)” value (786O_KIDNEY) was 0.9593, the “Area under the curve (AUC)” value (5637_URINARY_TRACT) was 0.5198 and the “Area under the curve (AUC)” value (8305C_THYROID) was 0.8425. For the same compound, the “AUC (PRISM)” value (A101D_SKIN) was 0.8318, the “AUC (PRISM)” value (A375_SKIN) was 0.8721 and the “PRISM AUC” value (A549_LUNG) was 0.4422. For the same compound, the “AUC (PRISM)” value (A1207_CENTRAL_NERVOUS_SYSTEM) was 0.9848, the “AUC (PRISM)” value (A2058_SKIN) was 0.6601 and the “PRISM AUC” value (AGS_STOMACH) was 0.2114. The “PRISM AUC” value (ASPC1_PANCREAS) was 0.2372, the “PRISM AUC” value (CAL62_THYROID) was 0.7922 and the “PRISM AUC” value (CALU1_LUNG) was 0.3345. For the same compound, the “Area under the curve (AUC)” value (CAOV3_OVARY) was 0.8029, the “Area under the curve (AUC)” value (CAPAN2_PANCREAS) was 0.3724 and the “PRISM AUC” value (CAPAN2_PANCREAS) was 0.2599. The “Area under the curve (AUC)” value (CAS1_CENTRAL_NERVOUS_SYSTEM) was 0.8726, the “Area under the curve (AUC)” value (CASKI_CERVIX) was 0.7017 and the “Area under the curve (AUC)” value (CBAGPN_BONE) was 0.5843. The “Area under the curve (AUC)” value (CCFSTTG1_CENTRAL_NERVOUS_SYSTEM) was 0.8445, the “Area under the curve (AUC)” value (CCK81_LARGE_INTESTINE) was 0.8268 and the “Area under the curve (AUC)” value (CCLP1_BILIARY_TRACT) was 0.6816. For the same compound, the “Area under the curve (AUC)” value (CCSW1_BILIARY_TRACT) was 0.6555, the “Area under the curve (AUC)” value (CFPAC1_PANCREAS) was 0.5351 and the “PRISM AUC” value (CFPAC1_PANCREAS) was 0.2506. The “Area under the curve (AUC)” value (CH157MN_CENTRAL_NERVOUS_SYSTEM) was 0.6397, the “Area under the curve (AUC)” value (CHAGOK1_LUNG) was 0.489 and the “Area under the curve (AUC)” value (CHL1_SKIN) was 0.6244. The “Area under the curve (AUC)” value (CHLA06ATRT_SOFT_TISSUE) was 0.5593, the “Area under the curve (AUC)” value (CHLA10_BONE) was 0.7982 and the “Area under the curve (AUC)” value (CHLA15_AUTONOMIC_GANGLIA) was 0.6039. The “Area under the curve (AUC)” value (CHLA57_BONE) was 0.7007, the “Area under the curve (AUC)” value (CHLA200_CENTRAL_NERVOUS_SYSTEM) was 0.6544 and the “Area under the curve (AUC)” value (CJM_SKIN) was 0.5835. For the same compound, the “Area under the curve (AUC)” value (CL11_LARGE_INTESTINE) was 0.4982, the “Area under the curve (AUC)” value (CMLT1_HAEMATOPOIETIC_AND_LYMPHOID_TISSUE) was 0.6333 and the “Area under the curve (AUC)” value (COGAR359_SOFT_TISSUE) was 0.7818. For the same compound, the “Area under the curve (AUC)” value (COGE352_BONE) was 0.9516, the “Area under the curve (AUC)” value (COGN278_AUTONOMIC_GANGLIA) was 0.4846 and the “Area under the curve (AUC)” value (COLO320_LARGE_INTESTINE) was 0.6681. For the same compound, the “Area under the curve (AUC)” value (COLO668_LUNG) was 0.6484, the “PRISM AUC” value (COLO668_LUNG) was 0.815 and the “Area under the curve (AUC)” value (COLO678_LARGE_INTESTINE) was 0.7153. The “Area under the curve (AUC)” value (COLO679_SKIN) was 0.858, the “Area under the curve (AUC)” value (COLO680N_OESOPHAGUS) was 0.6858 and the “Area under the curve (AUC)” value (COLO741_SKIN) was 1. The “Area under the curve (AUC)” value (COLO783_SKIN) was 0.8893, the “Area under the curve (AUC)” value (COLO792_SKIN) was 0.7007 and the “Area under the curve (AUC)” value (COLO800_SKIN) was 0.7125. For the same compound, the “Area under the curve (AUC)” value (CORL23_LUNG) was 0.5921, the “PRISM AUC” value (CORL23_LUNG) was 0.1909 and the “Area under the curve (AUC)” value (CORL88_LUNG) was 0.5624. The “Area under the curve (AUC)” value (CORL105_LUNG) was 0.7085, the “Area under the curve (AUC)” value (CORL279_LUNG) was 0.7248 and the “Area under the curve (AUC)” value (COV318_OVARY) was 0.8633. The “Area under the curve (AUC)” value (COV362_OVARY) was 0.7849, the “Area under the curve (AUC)” value (COV434_OVARY) was 0.99 and the “Area under the curve (AUC)” value (COV644_OVARY) was 0.7771. For the same compound, the “Area under the curve (AUC)” value (CW2_LARGE_INTESTINE) was 0.99, the “Area under the curve (AUC)” value (CW9019_SOFT_TISSUE) was 0.6651 and the “Area under the curve (AUC)” value (DANG_PANCREAS) was 0.3955. The “PRISM AUC” value (DANG_PANCREAS) was 0.2087, the “Area under the curve (AUC)” value (DAOY_CENTRAL_NERVOUS_SYSTEM) was 0.7146 and the “Area under the curve (AUC)” value (DBTRG05MG_CENTRAL_NERVOUS_SYSTEM) was 0.9233. For the same compound, the “Area under the curve (AUC)” value (DEL_HAEMATOPOIETIC_AND_LYMPHOID_TISSUE) was 0.7782, the “Area under the curve (AUC)” value (DETROIT562_UPPER_AERODIGESTIVE_TRACT) was 0.4955 and the “Area under the curve (AUC)” value (DKMG_CENTRAL_NERVOUS_SYSTEM) was 0.9357. For the same compound, the “Area under the curve (AUC)” value (DL_SOFT_TISSUE) was 0.5482, the “Area under the curve (AUC)” value (DMS53_LUNG) was 0.9195 and the “Area under the curve (AUC)” value (DMS79_LUNG) was 0.9708. For the same compound, the “Area under the curve (AUC)” value (DMS273_LUNG) was 0.8299, the “Area under the curve (AUC)” value [1] was 0.662 and the “PRISM AUC” value [1] was 0.4904. The “Area under the curve (AUC)” value (DOHH2_HAEMATOPOIETIC_AND_LYMPHOID_TISSUE) was 0.794, the “Area under the curve (AUC)” value (DOTC24510_CERVIX) was 0.5479 and the “Area under the curve (AUC)” value (DU145_PROSTATE) was 0.7717. The “Area under the curve (AUC)” value (DU4475_BREAST) was 0.7278, the “Area under the curve (AUC)” value (DV90_LUNG) was 0.3742 and the “PRISM AUC” value (DV90_LUNG) was 0.1773. The “Area under the curve (AUC)” value (EB1_HAEMATOPOIETIC_AND_LYMPHOID_TISSUE) was 0.7516, the “Area under the curve (AUC)” value (EBC1_LUNG) was 0.4773 and the “Area under the curve (AUC)” value (ECC2_BILIARY_TRACT) was 0.751. The “Area under the curve (AUC)” value (ECC10_STOMACH) was 0.6145, the “Area under the curve (AUC)” value (ECGI10_OESOPHAGUS) was 0.5375 and the “Area under the curve (AUC)” value (EFE184_ENDOMETRIUM) was 0.7163. For the same compound, the “Area under the curve (AUC)” value (EFM19_BREAST) was 0.9395, the “Area under the curve (AUC)” value (EFM192A_BREAST) was 1 and the “Area under the curve (AUC)” value (EFO21_OVARY) was 0.6416. For the same compound, the “Area under the curve (AUC)” value (EFO27_OVARY) was 0.6995, the “Area under the curve (AUC)” value (EGI1_BILIARY_TRACT) was 0.5258 and the “Area under the curve (AUC)” value (EKVX_LUNG) was 0.7007. For the same compound, the “Area under the curve (AUC)” value (EM2_HAEMATOPOIETIC_AND_LYMPHOID_TISSUE) was 0.5861, the “Area under the curve (AUC)” value (EMTOKA_ENDOMETRIUM) was 0.6769 and the “Area under the curve (AUC)” value (EN_ENDOMETRIUM) was 0.882. For the same compound, the “Area under the curve (AUC)” value (ES2_OVARY) was 0.9145, the “Area under the curve (AUC)” value (ESS1_ENDOMETRIUM) was 0.5647 and the “Area under the curve (AUC)” value (EW8_BONE) was 0.6981. The “Area under the curve (AUC)” value (EWS502_BONE) was 0.6483, the “Area under the curve (AUC)” value (FADU_UPPER_AERODIGESTIVE_TRACT) was 0.6687 and the “Area under the curve (AUC)” value (FLO1_OESOPHAGUS) was 1. The “Area under the curve (AUC)” value (FTC133_THYROID) was 0.5671, the “Area under the curve (AUC)” value (FTC238_THYROID) was 0.9611 and the “Area under the curve (AUC)” value (G292CLONEA141B1) was 0.925. The “Area under the curve (AUC)” value (G292CLONEA141B1_BONE) was 0.8311, the “Area under the curve (AUC)” value (G361_SKIN) was 1 and the “Area under the curve (AUC)” value (G401_SOFT_TISSUE) was 0.9104. For the same compound, the “Area under the curve (AUC)” value (G402_SOFT_TISSUE) was 0.9029, the “Area under the curve (AUC)” value (G415_BILIARY_TRACT) was 0.596 and the “Area under the curve (AUC)” value (GAMG_CENTRAL_NERVOUS_SYSTEM) was 0.6539. For the same compound, the “Area under the curve (AUC)” value (GB1_CENTRAL_NERVOUS_SYSTEM) was 1, the “Area under the curve (AUC)” value (GB2_BILIARY_TRACT) was 0.5045 and the “PRISM AUC” value (GP2D_LARGE_INTESTINE) was 0.4036. For the same compound, the “PRISM AUC” value (GSU_STOMACH) was 0.1903, the “PRISM AUC” value (HCC44_LUNG) was 0.3549 and the “PRISM AUC” value (HCC56_LARGE_INTESTINE) was 0.1735. For the same compound, the “PRISM AUC” value (HCT15_LARGE_INTESTINE) was 0.6069, the “PRISM AUC” value (HCT116_LARGE_INTESTINE) was 0.4206 and the “PRISM AUC” value (HEC1A_ENDOMETRIUM) was 0.5452. The “PRISM AUC” value (HEC1B_ENDOMETRIUM) was 0.557, the “PRISM AUC” value (HEYA8_OVARY) was 0.3651 and the “PRISM AUC” value (HMC18_BREAST) was 0.1236. For the same compound, the “PRISM AUC” value (HPAC_PANCREAS) was 0.2345, the “PRISM AUC” value (HPAFII_PANCREAS) was 0.1832 and the “AUC (PRISM viability)” value (HT29_LARGE_INTESTINE) was 0.9401. The “AUC (PRISM viability)” value (HT55_LARGE_INTESTINE) was 0.5483, the “AUC (PRISM viability)” value (HT144_SKIN) was 0.8437 and the “AUC (PRISM viability)” value (HT_HAEMATOPOIETIC_AND_LYMPHOID_TISSUE) was 0.5864. The “PRISM AUC” value (HUCCT1_BILIARY_TRACT) was 0.2016.
